Measured values taken from patent US20060069132A1, “Azolecarboxamide herbicides” (priority 2004, published 2006).

Experiments:
Surinam grass = experiment: Test B pre-/postemergence herbicide test; assay type: in vivo, Urochloa decumbens
Method in brief: (§1)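 Plants compared with untreated controls 13–15 days post-treatment and given a visual 0–100 injury score. Applications: preemergence to seeds; postemergence at 1- to 4-leaf (2–18 cm); paddy species flooded, 2-leaf stage. Vehicle non-phytotoxic, surfactant included.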

large crabgrass [1] = experiment: Test B pre-/postemergence herbicide test; assay type: in vivo, Digitaria sanguinalis; details: for Plant response rating, Crabgrass, Large: visual rating after 13 to 15 days
Method in brief: as §1

cocklebur = experiment: Test C pre-/postemergence herbicide test; assay type: in vivo, Xanthium strumarium
Method in brief: (§2)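 Emerged plants at the 1- to 4-leaf stage (2–18 cm), or freshly planted seeds, received test chemicals in a non-phytotoxic solvent mixture with surfactant. Response was visually scored against controls after 12 to 14 days in the greenhouse, on a 0 (no effect) to 100 (complete control) scale.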

large crabgrass [2] = experiment: Test C pre-/postemergence herbicide test; assay type: in vivo, Digitaria sanguinalis
Method in brief: as §2

johnsongrass = experiment: Test C pre-/postemergence herbicide test; assay type: in vivo, Sorghum halepense
Method in brief: as §2

morningglory = experiment: Test C pre-/postemergence herbicide test; assay type: in vivo, Ipomoea coccinea; set-up: key to Plant response rating, Morningglory: 0 = no effect, 100 = complete control
Method in brief: as §2

eastern black nightshade = experiment: Test C pre-/postemergence herbicide test; assay type: in vivo, Solanum ptycanthum; details: preemergence
Description: Seeds of plant species selected from bermudagrass (Cynodon dactylon (L.) Pers.), Surinam grass (Urochloa decumbens (Staph) R. D. Webster, previously named Brachiaria decumbens Stapf), cocklebur (Xanthium strumarium L.), corn (Zea mays L.), large crabgrass (Digitaria sanguinalis (L.) Scop.), woolly cupgrass (Eriochloa villosa (Thunb.) Kunth), giant foxtail (Setaria faberi Herrm.), goosegrass (Eleusine indica (L.) Gaertn.), johnsongrass (Sorghum halepense (L.) Pers.), kochia (Kochia scoparia (L.) Schrad.), lambsquarters (Chenopodium album L.), morningglory (Ipomoea coccinea L.), eastern black nightshade (Solanum ptycanthum Dunal), yellow nutsedge (Cyperus esculentus L.), pigweed (Amaranthus retroflexus L.), common ragweed (Ambrosia elatior L.), soybean (Glycine max (L.) Merr.), common (oilseed) sunflower (Helianthus annuus L.) and velvetleaf (Abutilon theophrasti Medik.) were planted and treated preemergence with test chemicals formulated in a non-phytotoxic solvent mixture which included a surfactant.
At the same time, plants selected from these crop and weed species and also winter barley (Hordeum vulgare L.), blackgrass (Alopecurus myosuroides Huds.), canarygrass (Phalaris minor Retz.), chickweed (Stellaria media (L.) Vill.), downy bromegrass (Bromus tectorum L.), green foxtail (Setaria viridis (L.) Beauv.), Italian ryegrass (Lolium multiflorum Lam.), wheat (Triticum aestivum L.), wild oat (Avenafatua L.) and windgrass (Apera spica-venti (L.) Beauv.) were treated with postemergence applications of some of the test chemicals formulated in the same manner. Plants ranged in height from 2 to 18 cm (1- to 4-leaf stage) for postemergence treatments. Plant species in the flooded paddy test consisted of rice (Oryza sativa), smallflower umbrella sedge (Cyperus difformis L.), ducksalad (Heteranthera limosa (Sw.) Willd.) and barnyardgrass (Echinochloa crus-galli (L.) Beauv.) grown to the 2-leaf stage for testing. Treated plants and controls were maintained in a greenhouse for 12 to 14 days, after which time all species were compared to controls and visually evaluated. Plant response ratings, summarized in Table C, are based on a scale of 0 to 100 where 0 is no effect and 100 is complete control. A dash (-) response means no test result.

yellow nutsedge = experiment: Test C pre-/postemergence herbicide test; assay type: in vivo, Cyperus esculentus
Method in brief: as §2

[3] = Postemergence, 500 g ai/ha, visual rating after 13 to 15 days, scale 0 (no effect) to 100 (complete control)
[4] = Preemergence, 500 g ai/ha, scale 0 to 100
[5] = preemergence, 125 g ai/ha, 0 to 100 scale, 0 is no effect, 100 is complete control
[6] = Postemergence, 125 g ai/ha, scale 0 (no effect) to 100 (complete control)
[7] = Postemergence, 500 g ai/ha, scale 0 (no effect) to 100 (complete control)
[8] = 250 g ai/ha, scale 0 to 100 (0 no effect, 100 complete control), visual, 12 to 14 days, preemergence
[9] = Postemergence, 125 g ai/ha, scale 0 to 100, 0 no effect, 100 complete control
[10] = Postemergence, 250 g ai/ha, scale 0 to 100, 0 no effect, 100 complete control
[11] = postemergence, 62 g ai/ha, scale 0 to 100
[12] = 125 g ai/ha, scale 0 (no effect) to 100 (complete control), visual, 12 to 14 days, preemergence
[13] = 125 g ai/ha, scale 0 (no effect) to 100 (complete control), visual, 12 to 14 days
[14] = 125 g ai/ha, 0 is no effect, 100 is complete control, preemergence
[15] = postemergence, 125 g ai/ha, scale 0 to 100
[16] = 62 g ai/ha, preemergence, scale 0 to 100
[17] = 250 g ai/ha, scale 0-100, preemergence
[18] = 500 g ai/ha, scale 0 to 100 (0 no effect, 100 complete control), visual, 12 to 14 days, preemergence
[19] = 31 g ai/ha, preemergence, scale 0 to 100

CCn1nc(C(C)(C)C)cc1C(=O)Nc1cccc(C(=O)NC2CC2)c1 [Compound 44]
100: Crabgrass, Large plant response rating (large crabgrass [1]; [4]) | Plant response rating, Nightshade (eastern black nightshade; 250 g ai/ha, scale 0 to 100 (0 no effect, 100 complete control), visual, 12 to 14 days)
0: Plant response rating, Surinam Grass (Surinam grass; [5]) | Plant response rating (0 = no effect, 100 = complete control), Cocklebur (cocklebur; 62 g ai/ha, preemergence) | Plant response rating, Cocklebur (cocklebur; [8]) | Plant response rating (0 = no effect, 100 = complete control), Crabgrass, Large (large crabgrass [2]; 62 g ai/ha, preemergence) | Plant response rating (0 = no effect, 100 = complete control), Morningglory (morningglory; 62 g ai/ha, preemergence) | Plant response rating, Morningglory (morningglory; [12]) | Plant response rating, Morningglory (morningglory; [8]) | Plant response rating (0 = no effect, 100 = complete control), Nutsedge, Yellow (yellow nutsedge; 62 g ai/ha, preemergence) | Plant response rating, Nutsedge, Yellow (yellow nutsedge; [12]) | Plant response rating, Nutsedge, Yellow (yellow nutsedge; [8])
30: Plant response rating (0 = no effect, 100 = complete control), Johnsongrass (johnsongrass; 62 g ai/ha, preemergence) | Plant response rating, Johnsongrass (johnsongrass; [12]) | Plant response rating, Johnsongrass (johnsongrass; [9]) | Plant response rating, Johnsongrass (johnsongrass; [11])
50: Plant response rating, Cocklebur (cocklebur; [11]) | Plant response rating, Johnsongrass (johnsongrass; [8]) | Plant response rating, Morningglory (morningglory; [11])
80: Plant response rating, Morningglory (morningglory; [10]) | Plant response rating (0 = no effect, 100 = complete control), Nightshade (eastern black nightshade; 62 g ai/ha)
70: Plant response rating, Cocklebur (cocklebur; [9]) | Plant response rating, Cocklebur (cocklebur; [10])
60: Plant response rating, Crabgrass, Large (large crabgrass [2]; [11])
40: Surinam Grass plant response rating (Surinam grass; [4]) | Plant response rating, Johnsongrass (johnsongrass; [10])
90: Plant response rating, Crabgrass, Large (large crabgrass [1]; [7]) | Plant response rating, Crabgrass, Large (large crabgrass [2]; [9]) | Plant response rating, Crabgrass, Large (large crabgrass [2]; [10]) | Plant response rating, Nightshade (eastern black nightshade; [13])
20: Plant response rating, Surinam Grass (Surinam grass; [3]) | Crabgrass, Large plant response rating (large crabgrass [1]; [6]) | Plant response rating, Crabgrass, Large (large crabgrass [2]; [12]) | Plant response rating, Crabgrass, Large (large crabgrass [2]; [8]) | Plant response rating, Nutsedge, Yellow (yellow nutsedge; [10]) | Plant response rating, Nutsedge, Yellow (yellow nutsedge; [11])

CCNC(=S)c1cccc(NC(=O)c2nn(C(C)(C)C)nc2C)c1 [Compound 420]
15: Plant response rating, Cocklebur (cocklebur; [17])
100: Plant response rating (0 to 100 scale), Crabgrass, Large (large crabgrass [1]; [14]) | Plant response rating, Crabgrass, Large (large crabgrass [2]; [16]) | Plant response rating (0 = no effect, 100 = complete control), Crabgrass, Large (large crabgrass [2]; 125 g ai/ha, preemergence) | Plant response rating, Crabgrass, Large (large crabgrass [2]; [17]) | Plant response rating, Crabgrass, Large (large crabgrass [2]; [18]) | Plant response rating, Johnsongrass (johnsongrass; [16]) | Plant response rating (0 = no effect, 100 = complete control), Johnsongrass (johnsongrass; 125 g ai/ha, preemergence) | Plant response rating, Johnsongrass (johnsongrass; [17]) | Plant response rating, Johnsongrass (johnsongrass; [18]) | Plant response rating, Morningglory (morningglory; [18]) | Plant response rating, Nightshade (eastern black nightshade; 500 g ai/ha, scale 0 to 100 (0 no effect, 100 complete control), visual, 12 to 14 days)
90: Plant response rating (0 = no effect, 100 = complete control), Nightshade (eastern black nightshade; 125 g ai/ha)
20: Surinam Grass plant response rating (Surinam grass; [15])
0: Plant response rating, Cocklebur (cocklebur; [16]) | Plant response rating (0 = no effect, 100 = complete control), Cocklebur (cocklebur; 125 g ai/ha, preemergence) | Plant response rating, Nutsedge, Yellow (yellow nutsedge; [16]) | Plant response rating (0 = no effect, 100 = complete control), Nutsedge, Yellow (yellow nutsedge; 125 g ai/ha, preemergence)
80: Plant response rating, Nightshade (eastern black nightshade; 62 g ai/ha, scale 0 to 100)
70: Plant response rating (0 to 100 scale), Surinam Grass (Surinam grass; [14]) | Plant response rating, Cocklebur (cocklebur; [18])
30: Surinam Grass plant response rating (Surinam grass; [7]) | Crabgrass, Large plant response rating (large crabgrass [1]; [15])
40: Crabgrass, Large plant response rating (large crabgrass [1]; [7])
10: Plant response rating, Morningglory (morningglory; [16])
25: Plant response rating, Nutsedge, Yellow (yellow nutsedge; [18])
55: Plant response rating (0 = no effect, 100 = complete control), Morningglory (morningglory; 125 g ai/ha, preemergence)

CCNC(=O)c1cccc(NC(=O)c2cc(C(C)(C)C)nn2CCF)c1 [Compound 35]
70: Plant response rating, Cocklebur (cocklebur; [9]) | Plant response rating, Johnsongrass (johnsongrass; [12]) | Plant response rating, Johnsongrass (johnsongrass; [9]) | Plant response rating, Johnsongrass (johnsongrass; [11]) | Plant response rating, Nightshade (eastern black nightshade; 31 g ai/ha, scale 0 to 100)
100: Plant response rating (0 = no effect, 100 = complete control), Morningglory (morningglory; 62 g ai/ha, preemergence)
10: Plant response rating (0 = no effect, 100 = complete control), Crabgrass, Large (large crabgrass [2]; 62 g ai/ha, preemergence) | Plant response rating, Johnsongrass (johnsongrass; [19])
90: Crabgrass, Large plant response rating (large crabgrass [1]; [4]) | Plant response rating, Nightshade (eastern black nightshade; [13])
20: Crabgrass, Large plant response rating (large crabgrass [1]; [6]) | Plant response rating, Crabgrass, Large (large crabgrass [1]; [7]) | Plant response rating, Cocklebur (cocklebur; [12]) | Plant response rating, Cocklebur (cocklebur; postemergence, 16 g ai/ha, scale 0 to 100) | Plant response rating, Cocklebur (cocklebur; postemergence, 31 g ai/ha, scale 0 to 100) | Plant response rating, Morningglory (morningglory; [11])
60: Plant response rating, Cocklebur (cocklebur; [11])
80: Surinam Grass plant response rating (Surinam grass; [4])
40: Plant response rating, Surinam Grass (Surinam grass; [3]) | Plant response rating, Surinam Grass (Surinam grass; [5]) | Plant response rating, Crabgrass, Large (large crabgrass [2]; [9]) | Plant response rating, Crabgrass, Large (large crabgrass [2]; [11]) | Plant response rating, Morningglory (morningglory; [15])
0: Plant response rating, Cocklebur (cocklebur; [19]) | Plant response rating (0 = no effect, 100 = complete control), Cocklebur (cocklebur; 62 g ai/ha, preemergence) | Plant response rating, Crabgrass, Large (large crabgrass [2]; [19]) | Plant response rating, Morningglory (morningglory; [19]) | Plant response rating, Nutsedge, Yellow (yellow nutsedge; 16 g ai/ha, scale 0 to 100, last section of Table C, preemergence) | Plant response rating, Nutsedge, Yellow (yellow nutsedge; [19]) | Plant response rating (0 = no effect, 100 = complete control), Nutsedge, Yellow (yellow nutsedge; 62 g ai/ha, preemergence) | Plant response rating, Nutsedge, Yellow (yellow nutsedge; [12]) | Plant response rating, Nutsedge, Yellow (yellow nutsedge; [15]) | Plant response rating, Nutsedge, Yellow (yellow nutsedge; [11])
50: Plant response rating, Crabgrass, Large (large crabgrass [2]; [12]) | Plant response rating (0 = no effect, 100 = complete control), Johnsongrass (johnsongrass; 62 g ai/ha, preemergence)
